Patent publication US7704986B2, “Vitamin D3 analogues for the prevention and treatment of bone disorders” (K.U. Leuven Research and Development, priority 2004, dated 2010)

Experiments:
[1] = test system: OVX or SHAM C3H female mice; assay: Restoration of bone loss in ovariectomized mice, oral treatment started 3 weeks after surgery; assay type: in vivo; conditions: 8 weeks
Procedure: 12-week-old C3H female mice were subjected to bilateral ovariectomy (OVX) or sham surgery SHAM (time point −3). The OVX and SHAM animals were treated with the vitamin D analogue MV2 (1 μg/kg three times per week) or vehicle (arachis oil) by oral gavage. Dosing was started 3 weeks after surgery (time point 0) and was continued for 8 weeks (time point 8). The number of mice per group is 8 to 10.
Before the surgery and 3 weeks after ovariectomy in vivo, measurements were performed in order to determine bone mineral density (BMD), bone mineral content (BMC) of total body and spine by DEXA. Before the surgery and 3 weeks after ovariectomy, serum was collected to measure calcium levels by a standard […] method (Synchron CX4, Beckman Instruments, USA). The animals were weighted regularly during the experimental period to monitor their overall health and well being. After 4 weeks treatment, serum was again collected and biochemical parameters were determined. At the end of the experiment (8 weeks of treatment) bone mineral density (BMD) and bone mineral content (BMC) of total body and spine were measured by DEXA and serum was collected to determine serum calcium levels. […] Tibiae were used for histomorphometric analysis, and femurs for measurement of cortical and trabecular volumetric density and geometry by peripheral quantitative computed tomography (PQCT) ex vivo. […]

[2] = target: T1, human vitamin D binding protein (hDBP) (Homo sapiens, UniProt P02774); assay: Affinity for human vitamin D binding protein; conditions: hDBP 0.18 μM, 4° C. 3 hours; 1,25(OH)2D3 = 100
T1 sequence (P02774 17-474): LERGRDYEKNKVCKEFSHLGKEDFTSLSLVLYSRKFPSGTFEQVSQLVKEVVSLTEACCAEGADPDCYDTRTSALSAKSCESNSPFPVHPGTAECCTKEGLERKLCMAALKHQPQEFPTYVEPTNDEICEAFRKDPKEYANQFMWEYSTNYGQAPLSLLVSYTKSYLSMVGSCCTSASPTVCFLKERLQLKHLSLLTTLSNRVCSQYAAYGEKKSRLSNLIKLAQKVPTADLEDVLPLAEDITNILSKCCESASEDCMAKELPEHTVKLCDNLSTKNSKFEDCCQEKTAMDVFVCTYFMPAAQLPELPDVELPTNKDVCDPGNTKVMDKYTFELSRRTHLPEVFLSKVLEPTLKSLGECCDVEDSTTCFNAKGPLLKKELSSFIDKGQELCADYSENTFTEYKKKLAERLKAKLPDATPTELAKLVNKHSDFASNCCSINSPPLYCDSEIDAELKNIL
Procedure: Binding of 1α,25(OH)2D3 analogues to hDBP was performed at 4° C. […] Phase separation was then obtained by the addition of 0.5 ml of cold dextran-coated charcoal.

- hypercalcemic effects (serum calcium) ([1]; 1 pg/kg three times per week (so in the source)): no hypercalcemic effects
- DBP (relative affinity) [2]: 7%
SMILES: C[C@H](CC#CC(O)(C(F)(F)F)C(F)(F)F)[C@@]1(C)CC[C@@H](/C=C/C=C2C[C@@H](O)C[C@H](O)C2)C1(C)C [MV2, (1R,3R)-5-((E)-3-((1S,3R)-3-((1R)-6,6,6-trifluoro-5-hydroxy-1-methyl-5-trifluoromethyl-3-hexynyl)-2,2,3-trimethylcyclopentyl)-2-propenylidene)cyclohexane-1,3-diol]
- body weight during treatment ([1]; 1 μg/kg p.o. three times per week): no animals lost weight
